Measured values reported in article PMC6576746, “Rational discovery of dual-indication multi-target PDE/Kinase inhibitor for precision anti-cancer therapy using structural systems pharmacology” (PLoS Computational Biology, 2019).

Tests used:
Assay in all cases: biochemical
Parameters in all cases: DiscoverX KinomeScan competition binding assay across human kinases; per cent of control at 10 and 100 uM
ERK1 = target: T1, ERK1 (Homo sapiens, UniProt P27361); conditions: competition binding, % of control; read-out: Percent Control (100 uM Levosimendan)
T1 construct: gene MAPK3
Method: (§1) To validate our computational predictions, we employed a competition binding assay to detect the binding of levosimendan to 425 human kinases as well as its dose-response curve to RIOK1. The proprietary KinomeScan assay was performed by DiscoverX (Fremont, California, USA). The tests were performed at 10 μM and 100 μM concentrations of levosimendan, respectively. Assay results were reported as %control, calculated as follows: %control=(TestCompoundSignal−PositiveControlSignal)/(NegativeControlSignal−PositiveControlSignal)×100 KinomeScan assay across 452 human kinases verified our computational prediction (S1 Table). RIOK1 is one of the strongest inhibited kinases by levosimendan. The percentage control of RIOK1 is 15.0 and 0.0 under the treatment of 10 μM and 100 μM of levosimendan, respectively. […] The percentage controls of five kinases: FLT3, MAP2K5, PIP5K1A, GAK, and KIT are less than 30.0 under the treatment of both 10 μM and 100 μM of levosimendan. Both FLT3 and KIT are tyrosine protein kinases. Their inhibitors have recently been approved for the treatment of Acute Myeloid Leukemia and other types of cancers, but a combination therapy is needed to overcome rapidly emerged drug resistance, thus improve patients’ drug responses. Other kinases inhibited by levosimendan belong to serine/threonine protein kinase family (RIOK1, RIOK3, GAK, and MAP2K5) and lipid kinase family (PIP5K1A). […] As a result, levosimendan may modulate different cancer pathways from those by the tyrosine protein kinase inhibitors, and it could be a novel lead compound for a new anti-cancer therapy to overcome drug resistance of existing drugs or to target different types of cancers through polypharmacology or drug combination.

DDR2 = DDR2 (Homo sapiens, UniProt Q16832); conditions: competition binding, % of control; read-out: Percent Control (100 uM Levosimendan)
Method: as §1

PRKG1 = PRKG1 (Homo sapiens, UniProt Q13976); conditions: competition binding, % of control; read-out: Percent Control (100 uM Levosimendan)
Method: as §1

MST2 = target: T2, MST2 (Homo sapiens, UniProt Q13188); conditions: competition binding, % of control; read-out: Percent Control (100 uM Levosimendan)
T2 construct: gene STK3
Method: as §1

PRKCE = PRKCE (Homo sapiens, UniProt Q02156); conditions: competition binding, % of control; read-out: Percent Control (100 uM Levosimendan)
Method: as §1

INSR = INSR (Homo sapiens, UniProt P06213); conditions: competition binding, % of control; read-out: Percent Control (100 uM Levosimendan)
Method: as §1

EGFR(L858R) = EGFR(L858R) (Homo sapiens, UniProt P00533, L858R); conditions: competition binding, % of control; read-out: Percent Control (100 uM Levosimendan)
Method: as §1

ACVR2A = ACVR2A (Homo sapiens, UniProt P27037); conditions: competition binding, % of control
Method: as §1

FES = FES (Homo sapiens, UniProt P07332); conditions: competition binding, % of control; read-out: Percent Control (100 uM Levosimendan)
Method: as §1

FGR = FGR (Homo sapiens, UniProt P09769); conditions: competition binding, % of control
Method: as §1

[1] = target: T3, JAK2(JH1domain-catalytic) (Homo sapiens, UniProt O60674); conditions: competition binding, % of control
T3 construct: JH1domain-catalytic
Method: as §1

EGFR(L747-T751del,Sins) = EGFR(L747-T751del,Sins) (Homo sapiens, UniProt P00533, DEL747-750/T751S); conditions: competition binding, % of control; read-out: Percent Control (100 uM Levosimendan)
Method: as §1

[2] = target: T4, ABL1(H396P)-nonphosphorylated (Homo sapiens, UniProt P00519, H396P); conditions: competition binding, % of control; read-out: Percent Control (100 uM Levosimendan)
T4 construct: nonphosphorylated
Method: as §1

ERK3 = target: T5, ERK3 (Homo sapiens, UniProt Q16659); conditions: competition binding, % of control; read-out: Percent Control (100 uM Levosimendan)
T5 construct: gene MAPK6
Method: as §1

MTOR = MTOR (Homo sapiens, UniProt P42345); conditions: competition binding, % of control; read-out: Percent Control (100 uM Levosimendan)
Method: as §1

CSNK1G2 = CSNK1G2 (Homo sapiens, UniProt P78368); conditions: competition binding, % of control
Method: as §1

ACVR2B = ACVR2B (Homo sapiens, UniProt Q13705); conditions: competition binding, % of control; read-out: Percent Control (100 uM Levosimendan)
Method: as §1

STK36 = STK36 (Homo sapiens, UniProt Q9NRP7); conditions: competition binding, % of control
Method: as §1

[3] = read-out: Percent Control (10 uM Levosimendan)
[4] = read-out: Percent Control (100 uM Levosimendan)

STK36, sequence (Q9NRP7 whole entry): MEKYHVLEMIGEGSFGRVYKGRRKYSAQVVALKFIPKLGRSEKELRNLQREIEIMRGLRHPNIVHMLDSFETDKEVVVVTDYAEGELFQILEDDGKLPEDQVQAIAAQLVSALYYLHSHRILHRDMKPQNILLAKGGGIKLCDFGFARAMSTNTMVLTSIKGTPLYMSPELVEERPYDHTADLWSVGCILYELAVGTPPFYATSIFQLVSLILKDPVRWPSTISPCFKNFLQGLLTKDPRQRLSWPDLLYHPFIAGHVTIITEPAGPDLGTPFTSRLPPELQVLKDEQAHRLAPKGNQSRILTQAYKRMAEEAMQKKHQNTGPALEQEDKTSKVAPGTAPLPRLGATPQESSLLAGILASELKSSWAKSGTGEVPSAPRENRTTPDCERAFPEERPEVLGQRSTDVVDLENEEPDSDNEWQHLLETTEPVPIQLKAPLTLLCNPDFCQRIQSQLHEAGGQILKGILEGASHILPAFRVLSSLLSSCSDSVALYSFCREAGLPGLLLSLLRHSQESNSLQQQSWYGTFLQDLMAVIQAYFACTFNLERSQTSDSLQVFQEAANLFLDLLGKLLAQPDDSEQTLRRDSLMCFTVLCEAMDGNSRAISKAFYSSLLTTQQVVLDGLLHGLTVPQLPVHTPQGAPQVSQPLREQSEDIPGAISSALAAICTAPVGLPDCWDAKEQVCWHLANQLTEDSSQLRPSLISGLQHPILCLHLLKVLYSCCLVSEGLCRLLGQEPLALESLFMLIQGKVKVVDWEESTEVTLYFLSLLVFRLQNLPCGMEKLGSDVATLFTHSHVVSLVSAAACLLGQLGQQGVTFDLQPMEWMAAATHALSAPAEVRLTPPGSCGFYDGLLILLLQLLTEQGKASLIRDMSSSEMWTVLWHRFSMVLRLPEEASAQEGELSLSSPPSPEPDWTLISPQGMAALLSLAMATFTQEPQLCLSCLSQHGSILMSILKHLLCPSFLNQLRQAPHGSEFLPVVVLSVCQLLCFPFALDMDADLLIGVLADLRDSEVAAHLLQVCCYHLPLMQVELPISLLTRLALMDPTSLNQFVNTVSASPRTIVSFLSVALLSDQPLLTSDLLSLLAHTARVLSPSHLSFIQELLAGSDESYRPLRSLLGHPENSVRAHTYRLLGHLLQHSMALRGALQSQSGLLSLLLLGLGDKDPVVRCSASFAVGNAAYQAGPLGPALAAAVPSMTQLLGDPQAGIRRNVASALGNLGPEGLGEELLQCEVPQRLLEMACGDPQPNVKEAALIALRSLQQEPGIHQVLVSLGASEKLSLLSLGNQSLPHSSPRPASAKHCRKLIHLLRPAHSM
ACVR2A, sequence (P27037 whole entry): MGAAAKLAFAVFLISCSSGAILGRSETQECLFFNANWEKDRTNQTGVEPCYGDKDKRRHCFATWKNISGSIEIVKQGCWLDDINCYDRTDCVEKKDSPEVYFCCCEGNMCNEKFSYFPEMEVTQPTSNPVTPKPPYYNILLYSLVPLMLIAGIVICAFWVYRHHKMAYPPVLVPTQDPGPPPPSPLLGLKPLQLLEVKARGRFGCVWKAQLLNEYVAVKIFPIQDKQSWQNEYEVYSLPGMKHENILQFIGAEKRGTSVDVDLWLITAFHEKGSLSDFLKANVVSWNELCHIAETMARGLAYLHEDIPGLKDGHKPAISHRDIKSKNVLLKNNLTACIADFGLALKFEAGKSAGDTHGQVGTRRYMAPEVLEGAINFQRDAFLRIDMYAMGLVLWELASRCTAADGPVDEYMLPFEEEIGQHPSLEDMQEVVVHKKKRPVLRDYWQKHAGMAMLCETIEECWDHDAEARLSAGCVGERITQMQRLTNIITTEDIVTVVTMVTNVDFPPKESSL
FGR, sequence (P09769 whole entry): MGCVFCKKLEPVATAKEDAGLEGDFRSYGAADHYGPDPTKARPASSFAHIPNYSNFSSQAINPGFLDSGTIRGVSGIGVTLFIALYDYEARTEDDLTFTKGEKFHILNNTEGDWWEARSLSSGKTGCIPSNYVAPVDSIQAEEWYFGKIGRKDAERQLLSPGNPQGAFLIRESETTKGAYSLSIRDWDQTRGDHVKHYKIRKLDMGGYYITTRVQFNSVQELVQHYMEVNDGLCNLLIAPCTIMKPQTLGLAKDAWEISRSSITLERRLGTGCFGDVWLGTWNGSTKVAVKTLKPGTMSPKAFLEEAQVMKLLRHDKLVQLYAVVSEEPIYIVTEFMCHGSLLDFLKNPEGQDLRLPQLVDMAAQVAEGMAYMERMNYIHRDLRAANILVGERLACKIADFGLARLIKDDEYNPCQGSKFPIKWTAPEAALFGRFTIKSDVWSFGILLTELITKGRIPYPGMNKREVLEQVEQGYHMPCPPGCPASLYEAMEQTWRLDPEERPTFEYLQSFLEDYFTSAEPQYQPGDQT
T3 sequence (O60674 whole entry): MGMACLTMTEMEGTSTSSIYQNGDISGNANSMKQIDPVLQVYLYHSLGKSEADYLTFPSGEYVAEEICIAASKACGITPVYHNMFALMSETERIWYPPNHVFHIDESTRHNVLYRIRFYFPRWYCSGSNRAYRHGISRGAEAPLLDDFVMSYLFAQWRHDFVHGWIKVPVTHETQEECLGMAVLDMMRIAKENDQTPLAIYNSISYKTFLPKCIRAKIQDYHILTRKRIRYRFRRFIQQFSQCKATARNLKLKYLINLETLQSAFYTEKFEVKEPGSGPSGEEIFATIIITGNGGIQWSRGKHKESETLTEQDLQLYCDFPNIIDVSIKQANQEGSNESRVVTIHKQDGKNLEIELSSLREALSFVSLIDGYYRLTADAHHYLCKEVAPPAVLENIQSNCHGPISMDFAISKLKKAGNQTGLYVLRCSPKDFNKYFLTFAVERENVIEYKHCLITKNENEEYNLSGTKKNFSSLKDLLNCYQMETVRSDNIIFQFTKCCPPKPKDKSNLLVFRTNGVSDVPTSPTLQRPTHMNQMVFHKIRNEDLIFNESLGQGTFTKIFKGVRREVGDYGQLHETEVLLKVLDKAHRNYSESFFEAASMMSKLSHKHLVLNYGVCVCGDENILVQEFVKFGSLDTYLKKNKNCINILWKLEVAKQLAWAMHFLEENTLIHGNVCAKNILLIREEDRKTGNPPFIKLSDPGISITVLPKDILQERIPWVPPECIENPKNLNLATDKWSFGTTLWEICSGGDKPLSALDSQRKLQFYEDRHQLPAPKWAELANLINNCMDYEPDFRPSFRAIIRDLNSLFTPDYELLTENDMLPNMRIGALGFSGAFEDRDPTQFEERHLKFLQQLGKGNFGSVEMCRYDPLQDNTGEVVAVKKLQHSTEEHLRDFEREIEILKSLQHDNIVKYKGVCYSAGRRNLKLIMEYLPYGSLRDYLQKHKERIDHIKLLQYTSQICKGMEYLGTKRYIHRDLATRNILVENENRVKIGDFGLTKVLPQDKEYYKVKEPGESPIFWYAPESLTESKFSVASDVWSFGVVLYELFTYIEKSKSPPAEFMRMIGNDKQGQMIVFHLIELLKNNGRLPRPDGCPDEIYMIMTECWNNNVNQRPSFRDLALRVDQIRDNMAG
CSNK1G2, sequence (P78368 whole entry): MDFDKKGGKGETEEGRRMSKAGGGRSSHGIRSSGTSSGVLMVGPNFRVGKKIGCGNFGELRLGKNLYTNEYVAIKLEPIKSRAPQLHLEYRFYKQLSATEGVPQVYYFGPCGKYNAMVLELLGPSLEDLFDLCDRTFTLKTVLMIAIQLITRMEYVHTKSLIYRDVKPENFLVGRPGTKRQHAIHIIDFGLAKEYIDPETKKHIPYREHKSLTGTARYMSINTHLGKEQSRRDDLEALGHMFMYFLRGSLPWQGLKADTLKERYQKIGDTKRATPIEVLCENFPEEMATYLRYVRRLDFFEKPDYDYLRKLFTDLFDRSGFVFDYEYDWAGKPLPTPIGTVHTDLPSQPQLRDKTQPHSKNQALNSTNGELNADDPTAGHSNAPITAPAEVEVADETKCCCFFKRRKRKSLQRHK
FES, sequence (P07332 whole entry): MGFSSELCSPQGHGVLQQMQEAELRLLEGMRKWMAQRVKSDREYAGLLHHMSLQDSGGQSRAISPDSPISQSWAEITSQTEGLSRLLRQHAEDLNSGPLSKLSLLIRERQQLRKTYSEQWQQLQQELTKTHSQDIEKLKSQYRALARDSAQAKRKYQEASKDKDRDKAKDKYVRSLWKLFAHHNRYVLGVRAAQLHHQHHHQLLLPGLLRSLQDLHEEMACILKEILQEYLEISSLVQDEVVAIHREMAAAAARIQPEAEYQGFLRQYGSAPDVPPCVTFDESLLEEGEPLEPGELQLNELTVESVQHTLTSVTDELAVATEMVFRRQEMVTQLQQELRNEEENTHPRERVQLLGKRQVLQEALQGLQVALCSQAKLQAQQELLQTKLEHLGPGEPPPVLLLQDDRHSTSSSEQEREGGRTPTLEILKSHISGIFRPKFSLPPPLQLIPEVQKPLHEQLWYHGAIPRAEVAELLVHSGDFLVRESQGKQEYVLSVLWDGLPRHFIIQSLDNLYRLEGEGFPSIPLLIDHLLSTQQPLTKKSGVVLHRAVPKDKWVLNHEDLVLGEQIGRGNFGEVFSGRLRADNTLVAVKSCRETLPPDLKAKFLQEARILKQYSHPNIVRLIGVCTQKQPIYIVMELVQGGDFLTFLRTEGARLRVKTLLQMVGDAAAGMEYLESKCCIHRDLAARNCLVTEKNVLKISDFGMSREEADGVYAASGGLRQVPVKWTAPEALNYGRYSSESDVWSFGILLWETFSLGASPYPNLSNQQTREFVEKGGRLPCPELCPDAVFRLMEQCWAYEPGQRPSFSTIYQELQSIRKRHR

**Q.** Which remaining binding at 100 µM (ERK1) does the source give for C[C@@H]1CC(=O)NN=C1c1ccc(NN=C(C#N)C#N)cc1 [levosimendan] here?
**A.** 87%

**Q.** What about the remaining binding at 100 µM (DDR2) of the same molecule?
**A.** 79%

**Q.** And the remaining binding at 100 µM (PRKG1)?
**A.** 64%

**Q.** What about the remaining binding at 100 µM (MST2) of the same molecule?
**A.** 100%

**Q.** And the remaining binding at 100 µM (PRKCE)?
**A.** 100%

**Q.** And the remaining binding at 100 µM (INSR)?
**A.** 76%

**Q.** And the remaining binding at 100 µM (EGFR(L858R))?
**A.** 63%

**Q.** What about the remaining binding at 10 µM (ACVR2A; [3]) of the same molecule?
**A.** 100%

**Q.** And the remaining binding at 100 µM (ACVR2A; [4])?
**A.** 46%

**Q.** And the remaining binding at 100 µM (FES)?
**A.** 76%

**Q.** And the remaining binding at 10 µM (FGR; [3])?
**A.** 100%

**Q.** What about the remaining binding at 100 µM (FGR; [4]) of the same molecule?
**A.** 49%

**Q.** What about the remaining binding at 10 µM [1, 3] of the same molecule?
**A.** 88%

**Q.** And the remaining binding at 100 µM [1, 4]?
**A.** 49%

**Q.** And the remaining binding at 100 µM (EGFR(L747-T751del,Sins))?
**A.** 59%

**Q.** And the remaining binding at 100 µM [2]?
**A.** 60%

**Q.** And the remaining binding at 100 µM (ERK3)?
**A.** 79%

**Q.** And the remaining binding at 100 µM (MTOR)?
**A.** 100%

**Q.** What about the remaining binding at 10 µM (CSNK1G2; [3]) of the same molecule?
**A.** 62%

**Q.** What about the remaining binding at 100 µM (CSNK1G2; [4]) of the same molecule?
**A.** 4.8%

**Q.** What about the remaining binding at 100 µM (ACVR2B) of the same molecule?
**A.** 100%

**Q.** What about the remaining binding at 10 µM (STK36; [3]) of the same molecule?
**A.** 98%

**Q.** What about the remaining binding at 100 µM (STK36; [4]) of the same molecule?
**A.** 50%
